Marks after values point to notes of the source that are not given here. Where a SMILES comes first, the peptide text is derived from it.
Key:
IL-1R/IL-1RacP receptor [1] = biological target: T1, IL-1R/IL-1RacP receptor (Rattus norvegicus, UniProt Q02955); test: IL-1β-induced systemic hypotension in rats; format: in vivo; settings: jugular injection
T1 construct: from tissue; host or cells: whole animal, Sprague-Dawley rat
T1 sequence (Q02955 20-576): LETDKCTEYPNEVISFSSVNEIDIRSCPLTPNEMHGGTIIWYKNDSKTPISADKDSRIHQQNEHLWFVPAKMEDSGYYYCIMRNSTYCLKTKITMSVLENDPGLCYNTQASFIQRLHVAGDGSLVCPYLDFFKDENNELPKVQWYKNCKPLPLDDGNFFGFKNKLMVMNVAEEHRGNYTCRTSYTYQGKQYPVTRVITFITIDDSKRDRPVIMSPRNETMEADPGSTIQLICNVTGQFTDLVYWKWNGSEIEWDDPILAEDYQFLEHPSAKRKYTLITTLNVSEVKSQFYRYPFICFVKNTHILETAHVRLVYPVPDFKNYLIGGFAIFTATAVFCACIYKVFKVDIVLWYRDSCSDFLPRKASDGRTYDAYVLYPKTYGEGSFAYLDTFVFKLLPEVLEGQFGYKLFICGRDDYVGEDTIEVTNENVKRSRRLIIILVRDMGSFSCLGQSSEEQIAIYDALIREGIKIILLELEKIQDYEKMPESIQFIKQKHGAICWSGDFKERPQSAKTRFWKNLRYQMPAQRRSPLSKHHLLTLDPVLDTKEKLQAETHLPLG
Experimental: The API-101 derivatives, API-101.10 (SEQ ID NO: 10) (and others) were tested to assess whether they could reverse the physiological actions of the natural ligand in vivo by injecting the derivative through the jugular or directly into the stomach (to verify the stability of the peptide through the digestive tract). Sprague-Dawley rats (300 g) were anesthetized with isoflurane (2.5-4%). The natural ligand (IL-1β) or vehicle (saline) was injected through the jugular vein (5 μg/kg). Blood was taken from the carotid artery for subsequent PGE2 measurements before and 10 min after each injection. Peptides were administered (dosage based on IC50 values and a volume of distribution equivalent to the extracellular space) either in the jugular vein or directly in the stomach (5 times dose used intravenously, (iv)). Arterial blood pressure and heart rate were continuously monitored (Gould) while temperature and blood gases (Radiometer) were measured for routine analysis as previously described (Li et al. 1997; Hardy et al. 1999; Najarian et al. 2000). Experiments were repeated 3 times.

IL-1R/IL-1RacP receptor [2] = biological target: T2, IL-1R/IL-1RacP receptor (Sus scrofa, UniProt A0A5G2QSI4); test: IL-1-induced PGE2 synthesis in piglet brain microvascular endothelial cells; format: cell-based, porcine; settings: endothelial cells; for inhibition of IL-1-induced PGE2 synthesis, compared with parent API-101: alanine scan peptides 10^−6M
T2 construct: endogenous in cells; host or cells: piglet brain microvascular endothelial cells
T2 sequence (A0A5G2QSI4 21-572): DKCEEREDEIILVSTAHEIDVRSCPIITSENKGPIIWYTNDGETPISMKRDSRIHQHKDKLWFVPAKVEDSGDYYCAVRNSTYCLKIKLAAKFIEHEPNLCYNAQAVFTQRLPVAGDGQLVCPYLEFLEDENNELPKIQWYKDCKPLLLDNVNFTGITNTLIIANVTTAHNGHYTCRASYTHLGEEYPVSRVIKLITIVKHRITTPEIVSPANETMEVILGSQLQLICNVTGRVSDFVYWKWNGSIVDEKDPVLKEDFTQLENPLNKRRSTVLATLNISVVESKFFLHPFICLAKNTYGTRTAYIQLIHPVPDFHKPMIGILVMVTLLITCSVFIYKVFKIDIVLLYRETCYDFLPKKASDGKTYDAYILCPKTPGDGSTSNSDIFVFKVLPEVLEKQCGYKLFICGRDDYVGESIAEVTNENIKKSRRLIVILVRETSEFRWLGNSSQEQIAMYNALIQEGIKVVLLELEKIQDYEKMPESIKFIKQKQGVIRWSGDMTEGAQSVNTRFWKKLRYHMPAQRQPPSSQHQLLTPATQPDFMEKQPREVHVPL
Experimental: (§1) It is well known in the art that IL-1 induces the synthesis of prostaglandin E2 (PGE2) in endothelial cells and/or chondrocytes in vitro. Therefore, human chondrocytes and piglet brain microvascular endothelial cells were pre-incubated 45-60 minutes at 37° C. with peptide API-101 (^10−6M) and human IL-1 (10 ng/ml) was added in the growing medium. After 24 hours of incubation, growth medium was collected and evaporated. PGE2 measurement was determined by RIA assay with a commercial kit (Cederlane).

IL-1R = biological target: T3, IL-1R (Homo sapiens, UniProt P14778); test: Characterization of peptidomimetics (FIGS. 26, 29, 30; assay not stated); settings: FIG. 26
T3 sequence (P14778 18-569): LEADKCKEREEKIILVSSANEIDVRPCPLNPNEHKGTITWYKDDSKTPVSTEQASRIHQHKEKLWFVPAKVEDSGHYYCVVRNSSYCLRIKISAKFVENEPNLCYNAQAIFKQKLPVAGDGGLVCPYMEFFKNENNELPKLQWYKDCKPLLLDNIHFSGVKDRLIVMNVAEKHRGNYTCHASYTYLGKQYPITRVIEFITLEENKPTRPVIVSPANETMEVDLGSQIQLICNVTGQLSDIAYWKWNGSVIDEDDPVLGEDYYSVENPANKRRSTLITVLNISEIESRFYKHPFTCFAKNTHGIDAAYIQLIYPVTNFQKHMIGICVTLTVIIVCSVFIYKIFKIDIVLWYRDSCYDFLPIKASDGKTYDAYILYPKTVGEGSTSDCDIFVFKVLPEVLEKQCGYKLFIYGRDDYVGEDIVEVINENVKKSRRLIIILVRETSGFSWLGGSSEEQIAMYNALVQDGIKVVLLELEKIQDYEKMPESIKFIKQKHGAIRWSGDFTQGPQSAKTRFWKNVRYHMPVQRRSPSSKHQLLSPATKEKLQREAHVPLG

IL-1R/IL-1RacP receptor [3] = test: Ex vivo vasomotricity: reversal of IL-1β-induced vasodilation of piglet pial vessels; settings: IL-1β 75 ng/ml
Experimental: Ex vivo vasomotor response on brain vessels was performed as described (Li et al., 1996; Hou et al., 2000; Hou et al., 2001; Hou et al., 2003). Brains were removed from Yorkshire piglets. Slices of cortex exposing the pial vessels were pinned to a wax base of a 20 ml bath containing Krebs buffer (pH 7.4) equilibrated with 95% O2, 5% CO2 and maintained at 37° C. Microvessels were visualized and recorded using a video camera mounted on a dissecting microscope. Vascular diameter was measured using a digital image analyzer. Vascular diameter was recorded before and after topical application of pre-constricting agent, U46619 (10^−7 M). After stabilization of preparation, the ligand (IL-1β, 75 ng/ml) was added until stable vasodilation was detected. Peptides were subsequently added at different concentrations from 10^−10 to 10^−5 M. Reversal of vasodilatation was visualized and measured as previously described (Hou, et al. 2000; Hou et al. 2001; Hou et al. 2003); triplicate measurements were conducted on 2 animals.

IL-1R/IL-1RacP receptor [4] = biological target: T4, IL-1R/IL-1RacP receptor (Homo sapiens, UniProt P14778); test: IL-1-induced PGE2 synthesis in human chondrocytes; format: cell-based; set-up: endogenous in cells; settings: alanine scan peptides 10^−6M
T4 sequence (P14778 18-569): T3 sequence (P14778 18-569)
Experimental: as §1

IL-1R/IL-1RacP receptor [5] = test: IL-1-induced PGE2 synthesis in piglet brain microvascular endothelial cells; format: cell-based, porcine; settings: for potency and efficacy, IL-1-induced PGE2 synthesis: truncated derivatives, FIG. 18 (WI-38 and endothelial cells)
Experimental: as §1

[6] = TNBS-induced inflammatory bowel disease rat model, Example 6 (48 h; MPO, macroscopic, histologic); format: in vivo; set-up: macroscopic evaluation (median score): scale not given here
Experimental: Colon inflammation was induced by intra-rectal/colon administration of the hapten trinitrobenzene sulphonic acid (TNBS) on male Sprague-Dawley rats (175-200 g) (Bouma, Nature Rev, 2003; Morris, Gastroenterology, 1989). Animals were anesthetized with isoflurane and TNBS dissolved in 50% ethanol (vol/vol). 120 mg/ml (TNBS) was administered into the colon (total volume of 0.25 ml per rat) using a polyethylene tube (PE50). The cannula was inserted at 8 cm from the anus and kept in place for at least 15 min after TNBS administration in order to prevent expulsion of the solution. […] A third group (control) was not injected with TNBS. Six days after administration of TNBS, rats were killed by CO2 inhalation. Day 6 was chosen as an endpoint because by day 7 spontaneous tissue regeneration begins and this can mask the therapeutic effect of the tested peptide or peptide derivative. Colon was removed and examined macroscopically (adhesions, ulcerations, discoloration and bleeding) and histologically (neutrophil infiltration, epithelial injury, crypt distortion and ulcerations) (Anthony et al. 1995; Padol et al. 2000; Dieleman, L A, et al. 1997; Torres M I et al. 1999). Two animals per group were studied.
Colon inflammation was induced by intra-rectal/colon administration of the hapten trinitrobenzene sulphonic acid (TNBS) as described in Example 4. Two hours prior to TNBS administration, peptides, peptidomimetics or 0.9% saline were administered intravenously (iv) via the caudal vein (various concentrations of mg/kg/d) (total volume of 0.3 ml). […] A third group (control) was not injected with TNBS. […] Also, these IL-1R antagonists were given twice a day (BID); Remicade® (anti-TNFα) (10 mg/kg) and dexamethasone (0.75 mg/kg) were administered intraperitoneally but only once a day (qd). The intrarectal administration (ir) of 101.10, 101.113 (1 and 2.5 mg/kg), and 5-ASA (50 mg/kg) was done one hour after TNBS administration, and twice a day, except for 5-ASA which is once a day. Finally, 101.10 (1-5 mg/kg) was also administered orally by gavage (po), twice a day. Forty-eight hours after administration of TNBS, rats were killed by CO2 inhalation. Colon was removed and assessed macroscopically (adhesions, ulcerations, discoloration and bleeding) and histologically (neutrophil infiltration, epithelial injury, crypt distortion and ulcerations). One to seven animals per group were studied, according to treatments. Myeloperoxidase (MPO) activity was measured on tissue lysates.

[7] = Continuous infusion (ip), 0.5 mg/kg/d
[8] = Intermittent injection ip, 0.2-BID mg/kg/d

PRYTVELA [API-101.9]
prevention of IL-1β-induced hypotension, in words (IL-1R/IL-1RacP receptor [1]): less effective

CC(C)C[C@@H](NC(=O)[C@@H](CCC(=O)O)NC(=O)[C@H]1CC[C@H]2CC[C@@H](NC(=O)[C@@H](Cc3ccc(O)cc3)NC(=O)[C@H](N)CCCNC(=N)N)C(=O)N21)C(=O)N[C@H](C)C(N)=O [API-101.110, RY(I^2aa)ELA]
efficacy compared with API-101.107 (IL-1R/IL-1RacP receptor [2]): twice the efficacy
potency, fold higher than API-101.107 (IL-1R/IL-1RacP receptor [2]): 10 fold
IC50 (IL-1R): 10 pM

AARYTVELA [API-101.1]
inhibition of IL-1-induced PGE2 synthesis, compared with parent API-101 (IL-1R/IL-1RacP receptor [2]): slightly improved efficacy
reversal of IL-1β-induced vasodilation (IL-1R/IL-1RacP receptor [3]): reversed the vasodilation
vasodilation abolished (IL-1R/IL-1RacP receptor [3]): 70%
inhibition of IL-1-induced PGE2 synthesis, compared with parent API-101 (IL-1R/IL-1RacP receptor [4]): slightly improved efficacy

TVELA [API-101.12]
potency and efficacy, IL-1-induced PGE2 synthesis (IL-1R/IL-1RacP receptor [5]): decrease in potency and efficacy

CC(C)C[C@@H](NC(=O)[C@@H](CCC(=O)O)NC(=O)[C@H]1CCCN1C(=O)[C@H](NC(=O)[C@@H](Cc1ccc(O)cc1)NC(=O)[C@H](N)CCCNC(=N)N)[C@H](C)O)C(=O)N[C@H](C)C(N)=O [API-101.107, RYTPELA] (HELM PEPTIDE1{[dR].[dY].[dT].[dP].[dE].[dL].[dA].[am]}$$$$V2.0; C-terminus assumed)
IC50 (IL-1R/IL-1RacP receptor [5]; FIG. 15, cell type not stated): 1.2 pM
MPO (% of TNBS + Saline) [6, 7]: 37 % of TNBS + Saline
histologic evaluation (median score) [6, 7]: 1.5
MPO (% of TNBS + Saline) [6, 8]: 112 % of TNBS + Saline
histologic evaluation (median score) [6, 8]: 2.5
macroscopic evaluation (median score) [6, 8]: 1.37^†
reduction in MPO activity, macroscopic and histologic score, compared with Kineret ([6]; intraperitoneal osmotic pumps (continuous infusion)): superior or equivalent in efficacy to Kineret

APRYTVALA [API-101.6]
inhibition of IL-1-induced PGE2 synthesis, compared with parent API-101 (IL-1R/IL-1RacP receptor [2]): lost almost all activity
reversal of IL-1β-induced vasodilation (IL-1R/IL-1RacP receptor [3]): reversed the vasodilation
inhibition of IL-1-induced PGE2 synthesis, compared with parent API-101 (IL-1R/IL-1RacP receptor [4]): lost almost all activity

YTVELA [API-101.11]
potency and efficacy, IL-1-induced PGE2 synthesis (IL-1R/IL-1RacP receptor [5]): decrease in potency and efficacy

Reference: US8618054B2, “Interleukin-1 receptor antagonists, compositions, and methods of treatment” (Valorisation-Rechereche Société en Commandite, priority 2004, dated 2013)
